Assay results taken from article PMC12007089, “Applying Isothermal Titration Calorimetry and Saturation Transfer Difference-NMR to Study the Mode of Interaction of Flavan-3-ols with α-Amylase to Understand Their Impact on Starch Hydrolysis” (Journal of Agricultural and Food Chemistry, 2025).
Entries after “also recorded” stand apart in the source; their conditions may differ. Where two headings read alike, the source gives them in different places.

How the values were obtained:
[1] = Stability of ligands in 0.1 M PBS (UV/Vis concentration); format: physicochemical; settings: for conc.: storage 3,5 h (EC), 22 h (CAT), 15 h (PC B1, PC B2, PC C1); for difference rt and 277 K: same storage times
Method: Flavan-3-ols were dissolved in 0.1 M phosphate buffer containing 0.04 M NaCl at pH 7. Final concentrations were determined by UV/Vis spectroscopy at 298 K (quartz glass cuvette, light path 10 mm, Hellma Analytics, SPECTROstar Nano, BMG Labtech) using the following absorption coefficients ε at 280 nm: CAT, 3340 [L/mol cm]; EC, 3470 [L/mol cm]; PC B1, 6800 [L/mol cm]; […] PC C1, 10,000 [L/mol cm] according to Kaeswurm et al.[33] All ligand solutions were stored at 253 K. The data analysis for the interaction studies was conducted using software NanoAnalyze, with manual integration of the peaks. To correct the data for noninteraction-related heats, the mean heat released during the final three injections was subtracted as a constant blank. This procedure is an effective estimation strategy that minimizes errors during the fitting process, provided that the protein is fully saturated.[35] The data were fitted using the “independent” model. To prevent overparametrization, n was set to 1, while Ka and ΔH were maintained as variables, as recommended for low-affinity binding.[35],[36] The stability of the ligand at room temperature was ensured by monitoring the concentrations prior to and following the experiment (S5).

[2] = molecular target: T1, porcine pancreatic α-amylase (Sus scrofa, UniProt P00690); assay: Interaction studies by isothermal titration calorimetry (ITC); format: binding
T1 sequence (P00690 16-511): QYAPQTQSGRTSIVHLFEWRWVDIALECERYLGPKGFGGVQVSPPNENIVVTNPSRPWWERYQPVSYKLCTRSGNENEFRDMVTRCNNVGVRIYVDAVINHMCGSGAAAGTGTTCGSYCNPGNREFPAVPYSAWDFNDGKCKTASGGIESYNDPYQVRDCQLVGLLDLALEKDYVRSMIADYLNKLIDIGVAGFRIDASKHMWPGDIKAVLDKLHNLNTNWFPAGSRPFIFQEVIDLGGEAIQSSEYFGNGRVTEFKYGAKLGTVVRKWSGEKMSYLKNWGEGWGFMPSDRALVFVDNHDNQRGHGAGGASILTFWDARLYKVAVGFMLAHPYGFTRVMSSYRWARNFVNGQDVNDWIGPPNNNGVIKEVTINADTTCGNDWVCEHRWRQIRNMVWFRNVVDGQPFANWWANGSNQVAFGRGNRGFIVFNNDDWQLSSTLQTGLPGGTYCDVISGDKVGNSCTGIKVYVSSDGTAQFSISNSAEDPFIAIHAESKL
Method: Isothermal titration calorimetry was performed using an Affinity ITC LV with a cell volume of 182 μL (TA Instruments, Eschborn, Germany). Interaction experiments were recorded at 298 K with 0.1 mM rebuffered α-amylase in the sample cell and 4 mM flavan-3-ols in the injection syringe. For each ligand, experiments were performed with 25 injections of 3 μL and a spacing of 200 s between injections. Experiments were carried out in duplicates. Additional measurements were conducted in buffer to ensure that any mixing effects were negligible and that the observed heat development was solely attributed to the interaction studied (S4). In particular, at higher phenolic concentrations, endothermic peaks were observed, arising from the dilution effect.
The data analysis for the interaction studies was conducted using software NanoAnalyze, with manual integration of the peaks. To correct the data for noninteraction-related heats, the mean heat released during the final three injections was subtracted as a constant blank. This procedure is an effective estimation strategy that minimizes errors during the fitting process, provided that the protein is fully saturated.[35] The data were fitted using the “independent” model. To prevent overparametrization, n was set to 1, while Ka and ΔH were maintained as variables, as recommended for low-affinity binding.[35],[36] The stability of the ligand at room temperature was ensured by monitoring the concentrations prior to and following the experiment (S5).

α-amylase [3] = tested on: α-amylase; parameters: method as in PMID 28618113; settings: α-amylase concentration of 20 μM in the sample cell; cited from earlier work
α-amylase [4] = molecular target: α-amylase; parameters: method as in PMID 31496243; settings: substrate Gal-G2-CNP, UV-based, cited from earlier work
[5] = molecular target: T1, porcine pancreatic α-amylase; assay: CD spectroscopy, change in secondary structure of α-amylase; settings: for impact on the secondary structure of α-amylase: 90 μM α-amylase, 600 μM flavan-3-ol; for α-helix / β-turn / β-sheet / random coil: α-amylase + polyphenol, 90 µM α-amylase, 600 µM polyphenol; for α-helix: α-amylase alone 8; for β-turn: α-amylase alone 12; for β-sheet: α-amylase alone 32; for random coil: α-amylase alone 48
Method: CD spectra were recorded in the range of 240–190 nm with a bandwidth of 1 nm on a Jasco J-815 CD spectrometer equipped with a Peltier unit from Jasco PTC-4238 and a temperature control (F250, Julabo). For CD experiments, 20 μL respective dilutions of the stock solutions for α-amylase, EC, and PC B2 or mixtures of α-amylase and flavan-3-ol, obtained from the ITC cell after interactions experiments (see Section 2.7; 90 μM α-amylase and 600 μM EC/PC B2), were diluted with 60 μL of 0.2 M KCl and filled bubble-free into a cuvette with a light path of 0.1 mm (Hellma Analytics). At 273 K, 40 independent spectra were accumulated in a continuous scanning mode and a speed of 100 nm/min without baseline correction. Data analysis was performed in Excel according to Kaeswurm et al.[34]

[6] = molecular target: T1, porcine pancreatic α-amylase; assay: 1H NMR of aggregation of PC C1 with α-amylase; format: binding; settings: for adsorption of PC C1 on the surface of α-amylase: 1 mM (0.75 μmol) PC C1; for PC C1 signal intensities after addition of α-amylase: 275 K
Method: ^1H NMR experiments were conducted to investigate the aggregation of PC C1 with α-amylase. First, 1 mM PC C1 (0.75 μmol) was measured, and then, α-amylase was added at concentrations of 10 and 20 μM. The relative decrease in intensity of PC C1 signals in the range of 6.866–7.040 ppm (E2′, H6′, B2′, B5′, E5′, E6′, and H5′) was used to calculate the proportion of PC C1 aggregated with α-amylase. Blank measurements were performed with 10 and 20 μM α-amylase dissolved in the same buffer without PC C1. Data were acquired using a Bruker Avance III HD 600 MHz NMR spectrometer equipped with a 5 mm BBFO probe (Smart Probe) with ATM and a z-gradient. Spectra were recorded at 275 K (2 °C) in 0.1 M phosphate buffer/0.04 M NaCl phosphate buffer, pH 7, in D2O:H2O (9:1). The pulse program zgesgp was used with a spectral width of 16 ppm, and all spectra were recorded with 512 scans, an acquisition time of 1.70 s, and a recycle delay (D1) of 1 s. Data were analyzed using TopSpin software (version 4.4.1, Bruker).

[7] = 0.1 mM α-amylase, 4 mM flavan-3-ol, phosphate buffer, 298 K, n set to 1
[8] = 0.1 mM α-amylase, 4 mM flavan-3-ol, phosphate buffer, 298 K, n set to 1, read-out: Kd
[9] = phosphate buffer, 298 K, n set to 1
[10] = ITC, values as restated in the discussion

SMILES | conc. ([1]; 277 K) | conc. ([1]; room temperature (rt)) | difference rt and 277 K [1] | Ka [2, 7] | Kd [2, 8] | ΔG [2, 9] | ΔH [2, 9] | impact on the secondary structure of α-amylase [5] | α-helix [5] | β-turn [5] | β-sheet [5] | random coil [5] | ΔS [2, 9] | Ka [2, 10] | other results
Oc1cc(O)c2c(c1)O[C@H](c1ccc(O)c(O)c1)[C@@H](O)C2 [CAT, (+)-Catechin] | 3,94 ± 0,24 mM | 4,02 ± 0,21 mM | 0,08 mM | 2.1±0.0 10^3 M^-1 | 500 µM | -4.54 ± 0 kcal/mol | -12.7 ± 1.1 kcal/mol | – | – | – | – | – | – | – | –
Oc1cc(O)c2c(c1)O[C@H](c1ccc(O)c(O)c1)[C@H](O)C2 [EC, (−)-Epicatechin] | 3,99 ± 0,25 mM | 4,23 ± 0,24 mM | 0,24 mM | – | 300 µM | -4.78 ± 0.048 kcal/mol | -17.2 ± 1.67 kcal/mol | No significant impact; also recorded: did not induce significant changes | 14% | 15% | 23% | 48% | -173±24 J/mol·K | – | binding to α-amylase by ITC (α-amylase [3]): weak binder; Ki (α-amylase [4]; read-out: Kic): 88 ± 37 µM; Ki (α-amylase [4]; read-out: Kiu): 231 ± 45 µM; Kd ([2]; Ka, 0.1 mM α-amylase, 4 mM flavan-3-ol, phosphate buffer, 298 K, n set to 1): 263 µM
Oc1cc(O)c2c(c1)O[C@H](c1ccc(O)c(O)c1)[C@H](O)[C@H]2c1c(O)cc(O)c2c1O[C@H](c1ccc(O)c(O)c1)[C@@H](O)C2 [PC B1, procyanidin B1] | 4,28 ± 0,20 mM | 4,10 ± 0,29 mM | 0,18 mM | 1.1±0.1 10^3 M^-1 | 900 µM | -4.06 ± 0.024 kcal/mol | -5.26 ± 0.359 kcal/mol | – | – | – | – | – | -16±5 J/mol·K | 1100 M^–1 | –
Oc1cc(O)c2c(c1)O[C@H](c1ccc(O)c(O)c1)[C@H](O)[C@H]2c1c(O)cc(O)c2c1O[C@H](c1ccc(O)c(O)c1)[C@H](O)C2 [PC B2, procyanidin B2] | 4,46 ± 0,24 mM | 4,56 ± 0,21 mM | 0,11 mM | 0.9±0.1 10^3 M^-1 | 1100 ± 100 µM | -4.06 ± 0.048 kcal/mol | -1.9 ± 0.096 kcal/mol | No significant impact; also recorded: did not induce significant changes | 14% | 15% | 23% | 48% | 31±1 J/mol·K | 900 M^–1 | –
Oc1cc(O)c2c(c1)O[C@H](c1ccc(O)c(O)c1)[C@H](O)[C@H]2c1c(O)cc(O)c2c1O[C@H](c1ccc(O)c(O)c1)[C@H](O)[C@H]2c1c(O)cc(O)c2c1O[C@H](c1ccc(O)c(O)c1)[C@H](O)C2 [PC C1, procyanidin C1] | 4,60 ± 0,42 mM | 4,29 ± 0,30 mM | 0,31 mM | – | – | – | – | – | – | – | – | – | – | – | ratio of PC C1 to α-amylase ([6]; 10 μM α-amylase): 26; adsorption of PC C1 on the surface of α-amylase ([6]; 10 μM α-amylase): 0.20 µmol; ratio of PC C1 to α-amylase ([6]; 20 μM α-amylase): 18; adsorption of PC C1 on the surface of α-amylase ([6]; 20 μM α-amylase): 0.28 µmol; PC C1 signal intensities after addition of α-amylase ([6]; 1 mM PC C1, 10 μM α-amylase): 73%; PC C1 signal intensities after addition of α-amylase ([6]; 1 mM PC C1, 20 μM α-amylase): 63%; interaction with α-amylase observed by ITC ([2]; 0.1 mM α-amylase, 4 mM ligand, 298 K): no observable interaction
